Entries after “also recorded” stand apart in the source; their conditions may differ.
What was measured:
[1] = system: gelatinase activity of the metalloproteinases; assay: Zymogram slices incubated with compound 1 or calcium chelators in the activating buffer (direct inhibition of enzyme); type: biochemical, human; settings: 10 mM chelator in incubation buffer; data not shown
Experimental: See, Felder, et al., J. Pharm. Exp. Therapeut. 257:967-971 (1991) and unpublished observations by the inventors.
Gelatin zymography was carded out using control conditioned media from A2058 cells and HT1080 cells in the absence of compound 1. Zymogram slices were incubated in low salt collagenase buffer with control (DMSO 0.1%), an inhibitory dose of compound 1 (20 μM), or the calcium chelators EGTA (10 mM) and EDTA (10 mM). […] See, Brown, et al., Cancer Res. 50:6184-6191 (1990). […] Lane 1 for each of the zymograms corresponds to A2058 while lane 2 corresponds to HT1080.

[2] = system: receptor-operated and voltage-gated calcium influx; settings: cited from earlier work
arachidonic acid release = settings: cited from earlier work
phospholipase C-γ = settings: cited from earlier work
MMP-2 [3] = assay: Gelatin zymography of conditioned media from human cancer cell lines (gelatinase activity); type: cell-based
Experimental: (§1) Conditioned media for zymogram and Western blot analysis were produced under serum-free conditions. Cells (2 million) were plated in 25 cm^2 flasks in serum-containing medium and cultured overnight. Serum-containingmedium was removed and the cell monolayers were washed twice with DMEM/ITS (DMEM containing insulin (5 μg/mL), transferrin (5 μg/mL), and selenium (5 ng/mL)). The resultant cells were fed with 3 mL of DMEM/ITS and additives as described in the Examples for two 24 hour periods. Conditioned media samples were collected at 24 hours and cells were refed with fresh DMEM/ITS containing the described additives for an additional 24 hours. Conditioned media samples were centrifuged to remove cells and debris then frozen at -20° C. until use. Freeze and thaw cycles of the conditioned media were limited to no more than two.
Quantitation of the effect was evaluated by laser densitometry of the resultant zymograms.
Aliquots of conditioned medium (15 μL) were electrophoresed on gelatin-containing 10% PAGE gels under nonreducing but denaturing conditions. These conditions allow the different gelatin-degrading species (MMPs) to separate by size. […] Bands of clearing, seen after Coomassie blue staining correspond to areas of gelatinase activity.
OVCAR3 conditioned media samples were concentrated 10-fold prior to zymography.
Known concentrated conditioned medium from HT1080 cells was used for identification of the gelatinase species as marked in FIG. 1A: 92 kDa, gelatinase B/MMP-9; 72 kDa, gelatinase A/MMP-2 latent form; 65 kDa intermediate and 62 kDa activated forms of MMP-2. The activated form of MMP-2 results from cleavage of the amino terminal domain.
Lane 1 corresponds to cells treated only with 0.05% DMSO as a control.
Quantitation of the zymograms in FIGS. 1A-1C were carded out using laser densitometry.
The effect of structural analogs on the gelatinase activity of A2058 cells was similarly evaluated.

MMP-2 [4] = settings: cited from earlier work; for MMP-2 induction/inhibition: human melanoma and fibrosarcoma cells
[5] = system: interstitial collagenase, MMP-1; settings: human melanoma and fibrosarcoma cells; cited from earlier work
gelatinase activity = assay: Gelatin zymography of A2058 and HT1080 cells, compound 1 with or without TGF-β1 (results in words); type: cell-based, human; settings: TGF-β1 (5 ng/mL) alone for 48 hr
Experimental: (§2) A2058 and HT1080 cells were incubated with compound 1 (2 μM), with or without TGF-β1 (5 ng/mL) for 24 and 48 hours prior to harvest of conditioned media. Aliquots were subjected to gelatin zymography as described in Example 1. Known concentrated conditioned medium from HT1080 cells was used for identification of the gelatinase species (92 kDa, gelatinase B/MMP-9; 72 kDa, gelatinase A/MMP-2 latent form; 65 kDa intermediate and 62 kDa activated forms of MMP-2).
(§3) Lane 1 is the control resulting from treatment of the cells with 0.1% DMSO. Lanes 2 and 3 correspond to those cells which are treated with 2 μM compound 1 in the absence of TGF-β1 for 24 and 48 hours, respectively. Lane 4 corresponds to cells which have been treated with TGF-β1 in the absence of compound 1. Lane 5 corresponds to cells which have been treated with TGF-β1 for 48 hours with compound 1 being added to the incubation mixture for the final 24 hours. Lane 6 corresponds to cells which have been treated for 48 hours with both TGF-β1 and compound 1.

MMP-2 [6] = assay: Gelatin zymography of A2058 cells, compound 1 with or without TGF-β1 (densitometry); type: cell-based, human; settings: TGF-β1 alone (0 hr compound 1), control band = 100%
Experimental: as §1
(§4) A2058 human melanoma cells, human HT1080 fibrosarcoma cells, and OVCAR3 human ovarian cancer cells were incubated with increasing concentrations of compound 1 (0.2-20 μM) or DMSO control (0.05%) and subjected to gelatin zymography. Aliquots of conditioned medium (15 μL) were electrophoresed on gelatin-containing 10% PAGE gels under nonreducing but denaturing conditions. These conditions allow the different gelatin-degrading species (MMPs) to separate by size. The enzymes renature after removal of the SDS by incubation of the gel with 2.5 % Triton X-100, and degrade the gelatin substrate present in the polyacrylamide gel upon overnight incubation in low salt collagenase buffer. Bands of clearing, seen after Coomassie blue staining correspond to areas of gelatinase activity.
as §2, §3
(§5) *The control band was defined as 100% gelatinase activity and the other
(§6) bands were normalized to it. Numbers reflect triplicate measurements from
(§7) each zymogram band of representative zymograms. Standard deviations, not

MMP-9 = assay: Gelatin zymography of HT1080 cells, compound 1 with or without TGF-β1 (densitometry), 92 kDa; type: cell-based, human; settings: TGF-β alone (0 hr compound 1), control band = 100%
Experimental: as §1, §4, §2, §3, §5, §6, §7

MMP-2 [7] = assay: Gelatin zymography of HT1080 cells, compound 1 with or without TGF-β1 (densitometry); type: cell-based, human; settings: TGF-β alone (0 hr compound 1), control band = 100%
Experimental: as §1, §4, §2, §3, §5, §6, §7

[8] = system: gelatinase activity of the metalloproteinases; settings: EDTA in incubation buffer; shown by others; cited from earlier work

O=C(O)CN(CCOCCOCCN(CC(=O)O)CC(=O)O)CC(=O)O [EGTA, ethylenebis(oxyethylenenitrilo)tetraacetic acid, reference compound]
requirement for metal ion in the activation buffer [1]: confirmed the requirement for metal ion (Ca^++) in the activation buffer

COc1ccc(CCCOC(Cn2ccnc2)c2ccc(OC)cc2)cc1 (stereo not shown) [Compound 2, reference compound]
calcium influx inhibition [2]: inhibited; also recorded: effective inhibitor of receptor-operated calcium channels with reactivity against some voltage-gated calcium channels | arachidonic acid release (arachidonic acid release): inhibited | tyrosine phosphorylation with activation of phospholipase C-γ (phospholipase C-γ): inhibited | MMP-2 activity (MMP-2 [3]; A2058, 10 μM (FIG. 1E)): reduced MMP-2 activity | inhibition of MMP-2 gelatinase activity (FIG. 1) (MMP-2 [3]; zymograms of FIG. 1): inhibition

CCCCCCCCCCCCCC(=O)OC1C(C)C2(O)C(C=C(CO)CC3(O)C(=O)C(C)=CC32)C2C(C)(C)C12OC(C)=O (stereo not shown) [TPA, 12-O-tetradecanoylphorbol-13-acetate, reference compound]
MMP-2 induction/inhibition (MMP-2 [4]): inhibition of MMP-2 | MMP-1 induction/inhibition [5]: induction of MMP-1

TGF-β1: transforming growth factor-β1
gelatinase activity (gelatinase activity): increased gelatinase activity | production of MMP-2 by stimulation of RNA expression (MMP-2 [4]; cell type not stated): stimulate production of MMP-2 by stimulation of RNA expression | MMP-2 induction/inhibition (MMP-2 [4]): induction of MMP-2 | gelatinase activity, 65 + 62 kDa (MMP-2 [6]): 0% | gelatinase activity, 72 kDa (MMP-2 [6]): 68% | gelatinase activity, 92 kDa (MMP-9): 64% | MMP-1 induction/inhibition [5]: inhibition of the interstitial collagenase, MMP-1 | gelatinase activity, 65 + 62 kDa (MMP-2 [7]): 192% | gelatinase activity, 72 kDa (MMP-2 [7]): 47%

O=C(O)CN(CCN(CC(=O)O)CC(=O)O)CC(=O)O [EDTA, ethylenediamine tetraacetic acid, reference compound]
inhibition of gelatinolytic activity [8]: inhibit gelatinolytic activity | requirement for metal ion in the activation buffer [1]: confirmed the requirement for metal ion (Ca^++) in the activation buffer

Source: patent US5602156A, “Method for inhibiting metalloproteinase expression” (The United States of America as represented by the …, priority 1994, dated 1997)
